The source of these data is ChEMBL document CHEMBL4610065, “Isolation and Structural Characterization of Specific Bacterial β-Glucuronidase Inhibitors from Noni (Morinda citrifolia) Fruits” (J Nat Prod, 2020).

Each structure is given as a SMILES string. The source made the active and inactive calls. The rule behind the calls is not given here.

For data set [1], the species on record is Rattus norvegicus. Nature of the data set: Inhibition of rat intestinal alpha-glucosidase at 0.02 mM using pNPG as substrate preincubated for 3 mins followed by substrate addition and measured after 30 mins relative to control.
Data set [2] concerns the target T1, Pancreatic alpha-amylase (Sus scrofa, UniProt P00690).
T1 sequence (P00690 whole entry): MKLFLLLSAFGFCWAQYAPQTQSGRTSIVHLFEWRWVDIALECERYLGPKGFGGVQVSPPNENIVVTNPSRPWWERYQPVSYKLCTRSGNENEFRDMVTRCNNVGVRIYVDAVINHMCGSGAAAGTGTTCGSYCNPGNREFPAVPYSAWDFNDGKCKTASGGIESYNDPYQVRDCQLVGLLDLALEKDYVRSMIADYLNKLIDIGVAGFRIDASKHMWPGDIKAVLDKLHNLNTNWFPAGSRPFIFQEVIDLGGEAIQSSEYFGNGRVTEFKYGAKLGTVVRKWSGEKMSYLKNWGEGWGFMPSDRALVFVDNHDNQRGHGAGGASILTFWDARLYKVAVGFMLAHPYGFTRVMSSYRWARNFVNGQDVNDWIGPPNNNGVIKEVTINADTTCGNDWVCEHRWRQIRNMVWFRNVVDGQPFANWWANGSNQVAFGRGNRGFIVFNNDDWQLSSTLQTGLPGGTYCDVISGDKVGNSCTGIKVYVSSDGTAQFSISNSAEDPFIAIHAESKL
Nature of the data set: Inhibition of porcine pancreatic alpha-amylase at 10 ug/ml using potato starch as substrate preincubated for 5 mins followed by substrate addition and measured after 3 mins by DNS method relative to control. The conditions noted are these: pig, 0.05 h.

Data set [3] concerns the target T2, Pancreatic triacylglycerol lipase (Sus scrofa, UniProt P00591).
T2 sequence (P00591 whole entry): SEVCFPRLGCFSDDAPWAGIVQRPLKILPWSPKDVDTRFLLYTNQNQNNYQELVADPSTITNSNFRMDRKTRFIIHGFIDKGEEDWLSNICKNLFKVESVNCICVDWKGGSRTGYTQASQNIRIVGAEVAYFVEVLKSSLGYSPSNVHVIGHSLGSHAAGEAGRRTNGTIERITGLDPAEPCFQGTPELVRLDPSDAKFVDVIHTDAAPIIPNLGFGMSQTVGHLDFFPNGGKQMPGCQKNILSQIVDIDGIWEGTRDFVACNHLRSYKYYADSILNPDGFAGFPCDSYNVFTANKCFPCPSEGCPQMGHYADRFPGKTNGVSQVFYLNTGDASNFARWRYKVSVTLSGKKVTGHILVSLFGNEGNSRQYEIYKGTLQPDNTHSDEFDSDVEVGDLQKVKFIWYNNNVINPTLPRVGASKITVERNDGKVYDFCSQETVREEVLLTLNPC
Nature of the data set: Inhibition of porcine pancreatic lipase up to 1 mg/ml using 4-MU oleate as substrate incubated for 30 min by fluorescence method relative to control. The conditions noted are these: pig, 0.5 h.

In data set [4] the target is T1, Pancreatic alpha-amylase. Nature of the data set: Inhibition of porcine pancreatic alpha-amylase at 0.1 to 0.5 mg/ml using potato starch as substrate preincubated for 5 mins followed by substrate addition and measured after 3 mins by DNS method. The following applies: pig, 0.05 h.
Data set [5] concerns the target Beta-glucuronidase (Escherichia coli (strain K12), UniProt P05804). Nature of the data set: Inhibition of Escherichia coli beta-glucuronidase using 4-methylumbelliferyl-beta-D-glucuronide hydrate as substrate preincubated for 5 mins followed by substrate addition and measured after 30 mins by fluorescence method.
For data set [6], the species on record is Rattus norvegicus. Nature of the data set: Inhibition of rat intestinal alpha-glucosidase at 1 mg/ml using pNPG as substrate preincubated for 3 mins followed by substrate addition and measured after 30 mins relative to control.
Data set [7] deals with T2, Pancreatic triacylglycerol lipase. Nature of the data set: Inhibition of porcine pancreatic lipase at 0.1 mg/ml using 4-MU oleate as substrate incubated for 30 min by fluorescence method relative to control. The conditions noted are these: pig, 0.5 h.
The species named for data set [8] is Rattus norvegicus. Nature of the data set: Inhibition of rat intestinal alpha-glucosidase at 0.5 mg/ml using pNPG as substrate preincubated for 3 mins followed by substrate addition and measured after 30 mins.
Data set [9] addresses T1, Pancreatic alpha-amylase. Nature of the data set: Inhibition of porcine pancreatic alpha-amylase at 1 mg/ml using potato starch as substrate preincubated for 5 mins followed by substrate addition and measured after 3 mins by DNS method relative to control. The conditions noted are these: pig, 0.05 h.
For data set [10], the target named is Beta-glucuronidase (Escherichia coli (strain K12)) (UniProt P05804). Nature of the data set: Potency index, ratio of DSA IC50 to compound IC50 for inhibition of Escherichia coli beta-glucuronidase using 4-methylumbelliferyl-beta-D-glucuronide hydrate as substrate preincubated for 5 mins followed by substrate addition and measured after 30 mins by fluorescence method.

In data set [11] the target is T2, Pancreatic triacylglycerol lipase. Nature of the data set: Inhibition of porcine pancreatic lipase at 5 ug/ml using 4-MU oleate as substrate incubated for 30 min by fluorescence method relative to control. The conditions noted are these: pig, 0.5 h.

Usually inhibition stands for the relative decrease from the control value, in per cent. In general, IC50 refers to the midpoint of a concentration-inhibition curve. A higher IC50 goes with weaker potency in that assay.

Beta-glucuronidase, sequence (P05804 whole entry): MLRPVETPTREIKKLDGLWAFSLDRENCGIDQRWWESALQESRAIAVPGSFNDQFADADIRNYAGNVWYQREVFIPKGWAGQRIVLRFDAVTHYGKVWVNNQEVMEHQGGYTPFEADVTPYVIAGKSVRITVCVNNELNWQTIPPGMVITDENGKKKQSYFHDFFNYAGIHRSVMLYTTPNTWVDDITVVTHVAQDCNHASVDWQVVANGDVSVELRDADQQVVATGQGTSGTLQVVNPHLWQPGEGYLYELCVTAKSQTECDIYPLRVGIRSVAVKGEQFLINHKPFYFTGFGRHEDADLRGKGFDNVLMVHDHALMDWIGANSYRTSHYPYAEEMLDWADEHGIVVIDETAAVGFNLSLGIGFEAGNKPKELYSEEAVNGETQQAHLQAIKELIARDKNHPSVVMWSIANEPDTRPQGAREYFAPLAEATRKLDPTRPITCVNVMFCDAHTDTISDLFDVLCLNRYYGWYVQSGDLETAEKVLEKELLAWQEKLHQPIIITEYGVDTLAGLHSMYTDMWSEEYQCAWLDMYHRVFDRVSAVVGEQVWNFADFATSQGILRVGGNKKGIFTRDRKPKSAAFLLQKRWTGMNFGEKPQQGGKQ
Beta-glucuronidase (Escherichia coli (strain K12)), sequence (P05804 whole entry, looked up): as the sequence (P05804 whole entry) above

In turn, `C[C@H]1O[C@H](O[C@H]2[C@H](O)[C@@H](O)[C@@H](O[C@H]3[C@H](O)[C@@H](O)C(O)O[C@@H]3CO)O[C@@H]2CO)[C@H](O)[C@@H](O)[C@@H]1N[C@H]1C=C(CO)[C@@H](O)[C@H](O)[C@H]1O` (stereo not given in full) [ACARBOSE] displayed an inhibition in data set [1] of 80%. In data set [2], the “inhibition (INH)” value is reported as 94%.
In the case of `OC[C@@H]1Oc2cc([C@@H]3OC[C@@H]4[C@H]3CO[C@H]4c3ccc4c(c3)O[C@@H](CO)[C@H](c3ccc(O)c(O)c3)O4)ccc2O[C@H]1c1ccc(O)c(O)c1`, the inhibition (INH) in data set [3] was 85 to 93%; in data set [4] it was “Not Active”; in data set [7] it was less than 56%; in [9], 21%. This molecule registered an IC50 in data set [5] of 0.95 µM. For the same molecule, the inhibition entry in data set [6] and in [8] was “inactive” each time. The Ratio IC50 in data set [10] lay within 3.5 to 39.5.
As to `OC/C=C/c1ccc2c(c1)O[C@H](c1ccc3c(c1)O[C@@H](c1ccc(O)c(O)c1)[C@H](CO)O3)[C@@H](CO)O2`, the figures for the inhibition (INH) in data set [3], in [4] and in data set [7] were 85 to 93%, “Not Active” and less than 56%, respectively. In addition, in [5], half-maximal inhibition (IC50) was put at 6.91 µM. This molecule yielded an inhibition in data set [6] of 12%. Also, the inhibition entry in data set [8] was “inactive”. In addition, in data set [10], the Ratio IC50 lay within 3.5 to 39.5.
With `O=C(O)[C@@H](O)[C@H]1OC(=O)[C@H](O)[C@H]1O`, the IC50 in data set [5] came out at 24.3 µM.
With `OC[C@H]1Oc2ccc([C@@H]3OC[C@@H]4[C@H]3CO[C@H]4c3ccc4c(c3)O[C@H](c3ccc(O)c(O)c3)[C@@H](CO)O4)cc2O[C@@H]1c1ccc(O)c(O)c1`, the inhibition (INH) in data set [3] is 85 to 93%; in data set [4], “Not Active”; in data set [7], less than 56%; in data set [9] it was 21%. The molecule further showed an IC50 in [5] of 0.62 µM. For the same molecule, the inhibition entry in data set [6] and in data set [8] was “inactive” throughout. In data set [10], the Ratio IC50 is 3.5 to 39.5.
For the molecule `CCCCCCCCCCC[C@@H](C[C@@H]1OC(=O)[C@H]1CCCCCC)OC(=O)[C@H](CC(C)C)NC=O` [ORLISTAT], in data set [11], the “inhibition (INH)” value worked out at 96%.
With `OC/C=C/c1ccc2c(c1)O[C@@H](CO)[C@H](c1ccc3c(c1)O[C@H](CO)[C@@H](c1ccc(O)c(O)c1)O3)O2`, the inhibition (INH) in [3] is 85 to 93%; in [4], “Not Active”; in data set [7], less than 56%; in data set [9] it was 21%. The molecule also registered an IC50 in data set [5] of 4.02 µM. In addition, the inhibition entry in data set [6] and in data set [8] was “inactive” in each case. For the same molecule, in data set [10], the Ratio IC50 is 3.5 to 39.5.
